assay: Compound was evaluated for its inhibitory activity in a calcineurin inhibition assay

Row | SMILES | IC50
1 | CC[C@@H]1NC(=O)[C@H]([C@H](O)[C@H](C)C/C=C/C(=O)OCCF)N(C)C(=O)[C@H](C(C)C)N(C)C(=O)[C@H](CC(C)C)N(C)C(=O)[C@H](CC(C)C)N(C)C(=O)[C@@H](C)NC(=O)[C@H](C)NC(=O)[C@H](CC(C)C)N(C)C(=O)[C@H](C(C)C)NC(=O)[C@H](CC(C)C)N(C)C(=O)CN(C)C1=O [6-(5-Ethyl-11,17,26,29-tetraisobutyl-14,32-diisopropyl-1,7,10,16,20,23,25,28,31-nonamethyl-3,6,9,12,15,18,21,24,27,30,33-undecaoxo-1,4,7,10,13,16,19,22,25,28,31undecaaza-cyclotritriacont-2-yl)-6-hydroxy-5-methyl-hex-2-enoic acid 2-fluoro-ethyl ester] | 636 nM
2 | CCOC(=O)/C=C/C[C@@H](C)[C@@H](O)[C@H]1C(=O)N[C@@H](CC)C(=O)N(C)CC(=O)N(C)[C@@H](CC(C)C)C(=O)N[C@@H](C(C)C)C(=O)N(C)[C@@H](CC(C)C)C(=O)N[C@@H](C)C(=O)N[C@H](C)C(=O)N(C)[C@@H](CC(C)C)C(=O)N(C)[C@@H](CC(C)C)C(=O)N(C)[C@@H](C(C)C)C(=O)N1C [6-(5-Ethyl-11,17,26,29-tetraisobutyl-14,32-diisopropyl-1,7,10,16,20,23,25,28,31-nonamethyl-3,6,9,12,15,18,21,24,27,30,33-undecaoxo-1,4,7,10,13,16,19,22,25,28,31undecaaza-cyclotritriacont-2-yl)-6-hydroxy-5-methyl-hex-2-enoic acid ethyl ester] | 363 nM
3 | CC[C@@H]1NC(=O)[C@H]([C@H](O)[C@H](C)C/C=C/C(=O)OC)N(C)C(=O)[C@H](C(C)C)N(C)C(=O)[C@H](CC(C)C)N(C)C(=O)[C@H](CC(C)C)N(C)C(=O)[C@@H](C)NC(=O)[C@H](C)NC(=O)[C@H](CC(C)C)N(C)C(=O)[C@H](C(C)C)NC(=O)[C@H](CC(C)C)N(C)C(=O)CN(C)C1=O [6-(5-Ethyl-11,17,26,29-tetraisobutyl-14,32-diisopropyl-1,7,10,16,20,23,25,28,31-nonamethyl-3,6,9,12,15,18,21,24,27,30,33-undecaoxo-1,4,7,10,13,16,19,22,25,28,31undecaaza-cyclotritriacont-2-yl)-6-hydroxy-5-methyl-hex-2-enoic acid methyl ester] | 581 nM
4 | CC[C@@H]1NC(=O)[C@H]([C@H](O)[C@H](C)C/C=C/C(=O)O)N(C)C(=O)[C@H](C(C)C)N(C)C(=O)[C@H](CC(C)C)N(C)C(=O)[C@H](CC(C)C)N(C)C(=O)[C@@H](C)NC(=O)[C@H](C)NC(=O)[C@H](CC(C)C)N(C)C(=O)[C@H](C(C)C)NC(=O)[C@H](CC(C)C)N(C)C(=O)CN(C)C1=O [6-(5-Ethyl-11,17,26,29-tetraisobutyl-14,32-diisopropyl-1,7,10,16,20,23,25,28,31-nonamethyl-3,6,9,12,15,18,21,24,27,30,33-undecaoxo-1,4,7,10,13,16,19,22,25,28,31undecaaza-cyclotritriacont-2-yl)-6-hydroxy-5-methyl-hex-2-enoic acid] | > 5000 nM
5 | CC[C@@H]1NC(=O)[C@H]([C@H](O)[C@H](C)CCCC(=O)OCCF)N(C)C(=O)[C@H](C(C)C)N(C)C(=O)[C@H](CC(C)C)N(C)C(=O)[C@H](CC(C)C)N(C)C(=O)[C@@H](C)NC(=O)[C@H](C)NC(=O)[C@H](CC(C)C)N(C)C(=O)[C@H](C(C)C)NC(=O)[C@H](CC(C)C)N(C)C(=O)CN(C)C1=O [6-(5-Ethyl-11,17,26,29-tetraisobutyl-14,32-diisopropyl-1,7,10,16,20,23,25,28,31-nonamethyl-3,6,9,12,15,18,21,24,27,30,33-undecaoxo-1,4,7,10,13,16,19,22,25,28,31undecaaza-cyclotritriacont-2-yl)-6-hydroxy-5-methyl-hexanoic acid 2-fluoro-ethyl ester] | 1540 nM
6 | CCOC(=O)CCC[C@@H](C)[C@@H](O)[C@H]1C(=O)N[C@@H](CC)C(=O)N(C)CC(=O)N(C)[C@@H](CC(C)C)C(=O)N[C@@H](C(C)C)C(=O)N(C)[C@@H](CC(C)C)C(=O)N[C@@H](C)C(=O)N[C@H](C)C(=O)N(C)[C@@H](CC(C)C)C(=O)N(C)[C@@H](CC(C)C)C(=O)N(C)[C@@H](C(C)C)C(=O)N1C [6-(5-Ethyl-11,17,26,29-tetraisobutyl-14,32-diisopropyl-1,7,10,16,20,23,25,28,31-nonamethyl-3,6,9,12,15,18,21,24,27,30,33-undecaoxo-1,4,7,10,13,16,19,22,25,28,31undecaaza-cyclotritriacont-2-yl)-6-hydroxy-5-methyl-hexanoic acid ethyl ester] | 840 nM
7 | CC[C@@H]1NC(=O)[C@H]([C@H](O)[C@H](C)CCCC(=O)OC)N(C)C(=O)[C@H](C(C)C)N(C)C(=O)[C@H](CC(C)C)N(C)C(=O)[C@H](CC(C)C)N(C)C(=O)[C@@H](C)NC(=O)[C@H](C)NC(=O)[C@H](CC(C)C)N(C)C(=O)[C@H](C(C)C)NC(=O)[C@H](CC(C)C)N(C)C(=O)CN(C)C1=O [6-(5-Ethyl-11,17,26,29-tetraisobutyl-14,32-diisopropyl-1,7,10,16,20,23,25,28,31-nonamethyl-3,6,9,12,15,18,21,24,27,30,33-undecaoxo-1,4,7,10,13,16,19,22,25,28,31undecaaza-cyclotritriacont-2-yl)-6-hydroxy-5-methyl-hexanoic acid methyl ester] | 890 nM
8 | CC[C@@H]1NC(=O)[C@H]([C@H](O)[C@H](C)CCCC(=O)OCSC)N(C)C(=O)[C@H](C(C)C)N(C)C(=O)[C@H](CC(C)C)N(C)C(=O)[C@H](CC(C)C)N(C)C(=O)[C@@H](C)NC(=O)[C@H](C)NC(=O)[C@H](CC(C)C)N(C)C(=O)[C@H](C(C)C)NC(=O)[C@H](CC(C)C)N(C)C(=O)CN(C)C1=O [6-(5-Ethyl-11,17,26,29-tetraisobutyl-14,32-diisopropyl-1,7,10,16,20,23,25,28,31-nonamethyl-3,6,9,12,15,18,21,24,27,30,33-undecaoxo-1,4,7,10,13,16,19,22,25,28,31undecaaza-cyclotritriacont-2-yl)-6-hydroxy-5-methyl-hexanoic acid methylsulfanylmethylester] | > 5000 nM

assay: Compound was evaluated for its inhibitory activity in a calcineurin inhibition assay (MTM)

Row | SMILES | IC50
9 | CC[C@@H]1NC(=O)[C@H]([C@H](O)[C@H](C)C/C=C/C(=O)OCSC)N(C)C(=O)[C@H](C(C)C)N(C)C(=O)[C@H](CC(C)C)N(C)C(=O)[C@H](CC(C)C)N(C)C(=O)[C@@H](C)NC(=O)[C@H](C)NC(=O)[C@H](CC(C)C)N(C)C(=O)[C@H](C(C)C)NC(=O)[C@H](CC(C)C)N(C)C(=O)CN(C)C1=O [Cyclosporin A analogue] | 2150 nM

assay: Compound was evaluated for its inhibitory activity in a calcineurin inhibition assay (MOM)

Row | SMILES | IC50
10 | CC[C@@H]1NC(=O)[C@H]([C@H](O)[C@H](C)C/C=C/C(=O)OCOC)N(C)C(=O)[C@H](C(C)C)N(C)C(=O)[C@H](CC(C)C)N(C)C(=O)[C@H](CC(C)C)N(C)C(=O)[C@@H](C)NC(=O)[C@H](C)NC(=O)[C@H](CC(C)C)N(C)C(=O)[C@H](C(C)C)NC(=O)[C@H](CC(C)C)N(C)C(=O)CN(C)C1=O [6-(5-Ethyl-11,17,26,29-tetraisobutyl-14,32-diisopropyl-1,7,10,16,20,23,25,28,31-nonamethyl-3,6,9,12,15,18,21,24,27,30,33-undecaoxo-1,4,7,10,13,16,19,22,25,28,31undecaaza-cyclotritriacont-2-yl)-6-hydroxy-5-methyl-hex-2-enoic acid methoxymethyl ester] | 1920 nM

assay: Compound was evaluated for its inhibitory activity in a calcineurin inhibition assay (morn)

Row | SMILES | IC50
11 | CC[C@@H]1NC(=O)[C@H]([C@H](O)[C@H](C)C/C=C/C(=O)OCOC)N(C)C(=O)[C@H](C(C)C)N(C)C(=O)[C@H](CC(C)C)N(C)C(=O)[C@H](CC(C)C)N(C)C(=O)[C@@H](C)NC(=O)[C@H](C)NC(=O)[C@H](CC(C)C)N(C)C(=O)[C@H](C(C)C)NC(=O)[C@H](CC(C)C)N(C)C(=O)CN(C)C1=O [6-(5-Ethyl-11,17,26,29-tetraisobutyl-14,32-diisopropyl-1,7,10,16,20,23,25,28,31-nonamethyl-3,6,9,12,15,18,21,24,27,30,33-undecaoxo-1,4,7,10,13,16,19,22,25,28,31undecaaza-cyclotritriacont-2-yl)-6-hydroxy-5-methyl-hex-2-enoic acid methoxymethyl ester] | 742 nM
12 | CC[C@@H]1NC(=O)[C@H]([C@H](O)[C@H](C)C/C=C/C(=O)OCSC)N(C)C(=O)[C@H](C(C)C)N(C)C(=O)[C@H](CC(C)C)N(C)C(=O)[C@H](CC(C)C)N(C)C(=O)[C@@H](C)NC(=O)[C@H](C)NC(=O)[C@H](CC(C)C)N(C)C(=O)[C@H](C(C)C)NC(=O)[C@H](CC(C)C)N(C)C(=O)CN(C)C1=O [Cyclosporin A analogue] | 348 nM

Reference: BindingDB's records for doi:10.1021/jm025595i (Enanta Pharmaceuticals, 2003)
